According to patent US12534444B2, “Treatment of cancer/inhibition of metastasis” (Celex Oncology Innovations Limited, priority 2010, dated 2026):

Columns and labels:
[1] = system: MDA-MB-231 cells; experiment: Single-cell adhesion assay (SCAMA, detachment negative pressure); format: cell-based, human
Protocol: FIG. 4 is a schematic illustration of the single-cell adhesion measurement apparatus (SCAMA) first described in the paper by Palmer et al. (2008). Human breast cancer cells from the MDA-MB-231 cell line were plated at a density of 2.5×10^4 cells/ml and left to settle in a cell culture dish 401 for 48 hours prior to measurements. Medium was removed and 2 ml of the drug under study was applied for 10 minutes. Adhesion was measured using a glass micropipette 402 connected to a vacuum pump 403 via plastic tubing 404. The tip of the micropipette was drawn to about 20 μm (range, 17-24 μm) tip diameter. The vacuum pump was used to create negative pressure inside a reservoir 405 so that the negative pressure could be applied to the tip of the micropipette by pressing the thumb to the open end of a sealable T-piece 406. […] The pressure was measured using a digital manometer 409 connected to a computer 410 via a RS232 cable 411. Using a micromanipulator 412, the micropipette 402 was positioned on the periphery of a single cell. […] The negative pressure required to detach the cell was recorded on the computer as a pressure spike. The peak of the spike (“detachment negative pressure” (DNP)) was used as a measure of the cell's adhesiveness. Using this technique, several recordings could be made from a single dish within minutes. […] In order to test for the reversibility of a given effect, the pharmacological agent was washed off, fresh medium was added and the plate was incubated for a further 10 minutes prior to re-measurement. Each treatment was carried out on at least two dishes of cells, at least 100 cells per dish were measured, and the experiment was repeated three times (with corresponding controls). In the single cell adhesion experiments, hypoxia was induced chemically by application of hydrogen peroxide (1-500 μM) for 24 hours.

[2] = system: Mat-LyLu cells; experiment: Transverse migration assay (Transwell); format: cell-based, rat
Protocol: This assay was used to represent the ability of cells to migrate as they intra/extravasate. […] The insert 602 has a migration filter membrane 605 in its base with 8 μm pores 606 extending therethrough.
Cells 607 were plated at a density of 2×10^4/ml on the filter membrane 605 and placed under a growth medium 608 containing 1% foetal bovine serum (FBS). A chemotactic gradient was created across the filter membrane 605 by placing growth medium 609 containing 10% FBS in the lower section 604 of the chamber.
Cells were allowed to migrate across the filter membrane 605 over a period of 24 hours, cells migrating and adhering to the underside of the filter membrane 605.
At the end of each assay, non-migrated cells were removed from the upper surface of the insert 602 with two different swabs
The number of cells migrating to the underside of the insert 602 was determined using crystal violet staining. Migrated cells were fixed for 15 minutes with ice-cold methanol. Then 0.5% crystal violet (in 25% methanol) was added for 15 minutes. The inserts were swabbed again and then washed in water and allowed to dry. Cells were then counted using twelve separate fields of view per insert (×200 magnification).
With the exception of single cell adhesion tests, which are discussed in the following paragraph, experiments were carried out under either; • (i) normal normoxic conditions ([…], 5% carbon dioxide), or • (ii) following 24 hours hypoxic pre-treatment (2% O2, 5% CO2, 93% N2) continued during the assays.

COc1ccccc1OCC(O)CN1CCN(CC(=O)Nc2c(C)cccc2C)CC1 (stereo not drawn) [ranolazine]
ADHESION ([1]; Hypoxia (chemically induced, hydrogen peroxide 24 hours), 0.1 μM): increased | ADHESION ([1]; Hypoxia (chemically induced, hydrogen peroxide 24 hours), 1 μM): continued to increase | ADHESION ([1]; Hypoxia (chemically induced, hydrogen peroxide 24 hours), 1 μM, listed as RANOLAZINE): increased | ADHESION ([1]; Hypoxia (chemically induced, hydrogen peroxide 24 hours), 10 μM): continued to increase | ADHESION ([1]; Hypoxia (chemically induced, hydrogen peroxide 24 hours), 10 μM, listed as RANOLAZINE): decreased | ADHESION ([1]; Hypoxia (chemically induced, hydrogen peroxide 24 hours), 100 μM): continued to increase | ADHESION ([1]; Hypoxia (chemically induced, hydrogen peroxide 24 hours), 100 μM, listed as RANOLAZINE): no benefit | ADHESION ([1]; Normoxia, 0.1 μM): no effect | ADHESION ([1]; Normoxia, 0.5 μM): increased | ADHESION ([1]; Normoxia, 1 μM): increased | ADHESION ([1]; Normoxia, 10 μM): increased | ADHESION ([1]; Normoxia, 20 μM): increased | ADHESION ([1]; Normoxia, 100 μM): increased | effect on adhesion in hypoxia compared with normoxia ([1]; before convergence at the higher drug concentrations): approximately 10 fold | TRANSVERSE MIGRATION ([2]; Hypoxia, 20 μM): reduced the transverse migration of the cells in a statistically significant way | TRANSVERSE MIGRATION ([2]; Hypoxia, 20 μM, listed as RANOLAZINE): decreased | TRANSVERSE MIGRATION ([2]; Hypoxia, 50 μM): reduced the transverse migration of the cells in a statistically significant way | TRANSVERSE MIGRATION ([2]; Hypoxia, 50 μM, listed as RANOLAZINE): decreased | TRANSVERSE MIGRATION ([2]; Hypoxia, 300 μM): reduced the transverse migration of the cells in a statistically significant way | TRANSVERSE MIGRATION ([2]; Hypoxia, 300 μM, listed as RANOLAZINE): decreased | TRANSVERSE MIGRATION ([2]; Normoxia, 20 μM): reduced the transverse migration | TRANSVERSE MIGRATION ([2]; Normoxia, 20 μM, listed as RANOLAZINE): decreased | TRANSVERSE MIGRATION ([2]; Normoxia, 50 μM): reduced the transverse migration | TRANSVERSE MIGRATION ([2]; Normoxia, 50 μM, listed as RANOLAZINE): decreased | TRANSVERSE MIGRATION ([2]; Normoxia, 300 μM): not statistically significant | TRANSVERSE MIGRATION ([2]; Normoxia, 300 μM, listed as RANOLAZINE): no effect | potency on transverse migration compared with positive control TTX ([2]; higher concentrations tested, TTX 1 μmol): more potent than the toxin (TTX)
